Reference: patent US8232253B2, “Treatment of lung cancer” (Ramot at Tel-Aviv University Ltd., priority 2006, dated 2012)

Key:
[1] = system: A549 cells; experiment: Drug combination experiments, live cell counting; format: cell-based, human; settings: 4 h
Procedure: In drug combination experiments, cells were grown for 2 days in the absence or in the presence of 40 μM FTS and were then treated for 4 h with gemcitabine (100 or 200 nM), cisplatin (50 or 100 nM), doxorubicin (50 or 100 nM), or paclitaxel (2.5 or 5 nM). Live cells were counted after a further 3 days of incubation with or without FTS. Experiments were performed twice in quadruplicate. To determine whether A549 cells were resistant to apoptosis, an experiment to examine the survival of human lung cancer A549 cells after exposure to a chemotherapeutic agent in the presence of FTS was performed. Thus, to determine whether treatment with FTS can increase the sensitivity of A549 cells to cytotoxic drugs, A549 cells were incubated for 48 h with DMSO (control) or with 40 μM FTS, then for 4 h with gemcitabine, cisplatin, doxorubicin, or paclitaxel at the indicated concentrations. The cells were then washed and incubated for a further 72 h with DMSO or with 40 μM FTS. Live cells were collected and counted. The numbers of cells in the drug-treated cultures, expressed as percentages of the numbers in the vehicle-treated control, are shown in FIGS. 13A-13D. Values are means±SD. *P<0.05, **P<0.01, compared to vehicle-treated control.

[2] = system: A549 cells; experiment: A549-cell-implanted nude mouse model, tumor growth; format: in vivo, nude mice; settings: gemcitabine alone 36 mg/kg i.p. every 4 days (FIG. 14D)
Procedure: Nude mice (6 weeks old) were housed in barrier facilities on a 12-h light/dark cycle. Food and water were supplied ad libitum. On day zero, A549 or HTB-58 cells (5×10^6 cells in 0.1 ml PBS) were implanted subcutaneously (s.c.) just above the right femoral joint. After 5 or 11 days the mice were separated randomly into control groups that had received only the vehicle and FTS-treated groups. Daily FTS treatments were administered either intraperitoneally (i.p.) or orally. Tumor volumes or weights were determined as described in Barkan, B., Starinsky, S., Friedman, E., Stein, R., Kloog, Y., Clin Cancer Res 12:5533-42 (2006). Gemcitabine treatment (36 mg/kg, i.p.) was administered every 4 days.
To determine whether FTS inhibited tumor growth in vivo, experiments were conducted using a nude mouse model. The lung cancer cells were implanted s.c. above the right femoral joint and the mice were then treated with FTS. In a first experiment, the effect of i.p. administration of FTS on tumor growth in A549 cells was assessed. Treatment was started 5 days after cell implantation, by which time the tumors were palpable. Tumor volumes were determined 24 days after implantation in two groups of mice (n=8) that had received daily i.p. administration of either the vehicle (control) or 10 mg/kg FTS.
In an additional set of experiments, the A549-cell-implanted nude mouse model was used to examine the effect of orally administered FTS on tumor growth. First, cells were implanted as described above and daily oral treatment with FTS (50 mg/kg; n=6) or vehicle (n=5) was started either 11 days (FIG. 14C) or 6 days (FIG. 14D) after implantation. […] Next, the effects of orally administered FTS, alone or in combination with gemcitabine, on A549-cell tumor growth was examined (FIG. 14D). Six days after cell implantation, mice were divided into four groups (n=8 per group) and treated orally with vehicle alone (control), FTS alone (60 mg/kg), vehicle and gemcitabine (36 mg/kg, i.p. every 4 days), or FTS and gemcitabine. Treatments with gemcitabine began 1 week after FTS treatment was started.

Compound: N.N.[Cl][Pt][Cl] [cisplatin, cis-diamminedichloroplatinum(II)]
- reduction in cell numbers ([1]; cisplatin alone 50 nM): 11±11%
- reduction in cell numbers ([1]; cisplatin alone 100 nM): 30±12.9%

Compound: Cl.Nc1ccn([C@@H]2O[C@H](CO)[C@@H](O)C2(F)F)c(=O)n1 [gemcitabine, 2′-deoxy-2′,2′-difluorocytidine monohydrochloride]
- effect on tumor weight [2]: significant reduction in tumor weight
- reduction in cell numbers ([1]; gemcitabine alone 100 nM): < 11%
- reduction in cell numbers ([1]; gemcitabine alone 200 nM): < 11%
